ChEMBL document CHEMBL5370544, “Design, synthesis, and biological evaluation of 1-styrenyl isoquinoline derivatives for anti-hepatocellular carcinoma activity and effect on mitochondria” (Eur J Med Chem, 2023)

Key:
HCCLM9 = assay: Antiproliferative activity against human HCCLM9 cells assessed as inhibition of cell growth measured after 72 hrs by MTT assay; type: functional, cell-based; conditions: HCCLM9, 72 h
SK-HEP1 = assay: Antiproliferative activity against human SK-HEP1 cells assessed as inhibition of cell growth measured after 72 hrs by MTT assay; type: functional, cell-based; conditions: SK-HEP1, 72 h
Huh-7 [1] = assay: Antiproliferative activity against human Huh-7 cells assessed as inhibition of cell growth measured after 72 hrs by MTT assay; type: functional, cell-based; conditions: Huh-7, 72 h
HepG2 = assay: Antiproliferative activity against human HepG2 cells assessed as inhibition of cell growth measured after 72 hrs by MTT assay; type: functional, cell-based; conditions: HepG2, 72 h
Huh-7 [2] = assay: Antitumor activity against human Huh-7 cells xenografted in BALB/c mouse assessed as tumor growth inhibition at 15 mg/kg, ip qd measured after 14 days; type: functional; conditions: Huh-7, 336 h, time 14 day, read-out: TGI

Structure (SMILES)	IC50 (HCCLM9) [µM]	IC50 (SK-HEP1) [µM]	IC50 (Huh-7 [1]) [µM]	IC50 (HepG2) [µM]	inhibition in vivo at 15 mg/kg (Huh-7 [2]) [%]
C#Cc1ccc(/C=C/c2nccc3ccccc23)cc1	> 40	> 40	12.9	> 40	–
COc1ccccc1/C=C/c1nccc2ccccc12	37.6	37.6	23.9	26.8	–
C(=C\c1nccc2ccccc12)/c1ccc(-c2ccccc2)cc1	> 40	> 40	> 40	> 40	–
Nc1ccccc1/C=C/c1nccc2ccccc12	> 40	26.1	> 40	25.3	–
C#Cc1ccccc1/C=C/c1nccc2ccccc12	> 40	39.2	24.8	31	–
Oc1cccc(/C=C/c2nccc3ccccc23)c1	> 40	> 40	24.7	20.4	–
Nc1cccc(/C=C/c2nccc3ccccc23)c1	30.9	> 40	14.1	8.66	–
Oc1ccc(/C=C/c2nccc3ccccc23)cc1	29.9	> 40	11.9	> 40	–
N#Cc1ccc(/C=C/c2nccc3ccccc23)cc1	30.7	> 40	5.61	> 40	–
Oc1ccccc1/C=C/c1nccc2ccccc12	13.6	17.1	6.07	8.92	–
CC(=O)Oc1cccc(/C=C/c2nccc3ccccc23)c1	28.6	14.3	11.6	14.5	–
CC(=O)Oc1ccc(/C=C/c2nccc3ccccc23)cc1	35.1	23.4	15.4	20.6	–
COc1cccc(/C=C/c2nccc3ccccc23)c1	20.4	33	15.1	10.8	–
N#Cc1cccc(/C=C/c2nccc3ccccc23)c1	> 40	> 40	12.2	> 40	–
N#Cc1ccccc1/C=C/c1nccc2ccccc12	10.8	11.7	4.52	17.4	–
Oc1ccc(/C=C/c2cc(O)cc(O)c2)cc1 [RESVERATROL]	> 40	> 40	> 40	> 40	–
Nc1ccc(/C=C/c2nccc3ccccc23)cc1	16.1	> 40	17.3	23.4	–
O=c1[nH]cc(F)c(=O)[nH]1 [FLUOROURACIL]	27.2	> 40	8.98	29.4	–
COc1ccc(/C=C/c2nccc3ccccc23)cc1	> 40	> 40	15.8	18.1	–
CNC(=O)c1cc(Oc2ccc(NC(=O)Nc3ccc(Cl)c(C(F)(F)F)c3)cc2)ccn1 [SORAFENIB]	9.21	8.63	9.48	9.03	77
